Measurements as given in patent US20060264498A1, “Anti-obesity agent” (Kyowa Hakko Kogyo Co., Ltd., priority 2003, published 2006).

System: KK-Ay/Ta Jc1 mice
Assay: Body weight increase per ingested feed amount in obesity type 2 diabetic model mice
Assay type: in vivo
Conditions: KK-Ay/Ta Jc1 male mice, 1% by weight in CE-2 feed; for Body Weight Increase/ Ingested Feed Amount (%): free intake, initial day to 17th day, mean value ± standard error (n=5); for body weight increase per ingested feed amount as compared with group 1 (CE-2 feed only): 17 days, t-test
Description: KK-Ay/Ta Jc1 mice (Clea Japan, Inc.; male; six weeks age)(15 mice) of an obesity type 2 diabetic model were divided into three groups each comprising five and named group 1 to group 3.
The mice of the groups 1 to 3 were made free to take feed and water. A commercially available feed CE-2 (manufactured by Clea Japan, Inc.) was ingested to the mice of group 1. CE-2 to which 1% by weight of trans-4-hydroxy-L-proline (manufactured by Kyowa Hakko Kogyo; hereinafter, abbreviated as the hydroxyproline) was added was ingested to the mice of group 2. CE-2 to which 1% by weight of trans-N-acetyl-4-hydroxy-L-proline (manufactured by Kyowa Hakko Kogyo; hereinafter, abbreviated as the N-acetylhydroxyproline) was added was ingested to the mice of group 3.
Body weight on the initial day of the test and on the 17th day and amount of the ingested feed from the initial day of the test to the 17th day were measured. As an index for the progress of obesity, a body weight increase during the test period for the total ingested feed amount during the test period was calculated for each mouse. The value was shown in terms of mean value±standard error (n=5) and statistic ratio of risk (p value) was determined by a t-test.

CC(=O)N1C[C@H](O)C[C@H]1C(=O)O [N-acetylhydroxyproline, trans-N-acetyl-4-hydroxy-L-proline]
Body Weight Increase/ Ingested Feed Amount (%): 4.2 ± 0.6 %
body weight increase per ingested feed amount as compared with group 1 (CE-2 feed only): significantly low

O=C(O)[C@@H]1C[C@@H](O)CN1 [hydroxyproline, trans-4-hydroxy-L-proline]
Body Weight Increase/ Ingested Feed Amount (%): 5.8 ± 0.4%
body weight increase per ingested feed amount as compared with group 1 (CE-2 feed only): tended to show low value
